Assay results reported in patent US20210401867A1, “PHOTOSENSITIZERS AND METHOD OF TREATING CANCER USING THE SAME” (Cheng-Wen Wu, priority 2018, published 2021).

Assays:
[1] = test system: FaDu cells; experiment: in vitro cell viability of FaDu cells; format: cell-based, human
Protocol: (§1) In the following examples, FaDu cells are used in cell viability tests and colony forming assays. FaDu cells (ATCC HTB-43) is a human head-and-neck cell line with squamous phenotype. FaDu cells used in the following examples are cultured in DMEM medium supplemented with 10% fetal bovine serum (FBS) and 1% penicillin/streptomycin, in a humidified incubator maintained at 37° C. and 5% CO2.
Referring to FIG. 4, an in vitro cell viability chart of FaDu cells when treated with BrdU is provided in accordance with an exemplary embodiment of the present disclosure. FaDu cells are treated with different dosages of BrdU for 24 hours and then FaDu cells are analyzed daily for cell viability. FaDu cells are derived from pharynx squamous cell carcinoma of human, and are resistant to radiation. 3×10^5 FaDu cells are seeded in 6-cm-plates. After 24 hours, different dosages of BrdU are added into the culture medium and incubated with the FaDu cells for another 24 hours.
Referring to FIG. 5, an in vitro cell viability chart of FaDu cells when treated with IdU is provided in accordance with an exemplary embodiment of the present disclosure. FaDu cells are treated with different dosages of IdU for 24 hours and then FaDu cells are analyzed for cell viability. FaDu cells are seeded in plate and treated with IdU by similar experiment procedures with FIG. 4.
Referring to FIG. 6, an in vitro viability chart of FaDu cells when irradiated by NR is provided in accordance with an exemplary embodiment of the present disclosure. FaDu cells are treated with different radiation doses of NanoRay radiation (NR). FaDu cells are trypsinized and collected by centrifugation. The centrifuged FaDu cells are then re-suspended in PBS in a 1.5-ml tube with 5×10^4 cells in 20 μL. The tube containing centrifuged FaDu cells are then subjected to different radiation doses of NR. […] From FIGS. 4, 5 and 6, it is concluded that an optimized dosage for BrdU and IdU for in vivo experiments would be 10 μM, and the optimized radiation dose for NR is within 4 Gy.

[2] = test system: FaDu cells; experiment: colony forming assay of FaDu cells; format: cell-based, human
Protocol: as §1
Referring to FIGS. 9A-C, an in vitro cell viability chart of FaDu cells when treated with BrdU alone, NR alone, and BrdU and NR, is provided in accordance with an exemplary embodiment of the present disclosure. NR treatments in FIGS. 9A, 9B, and 9C are similar with the experiment procedures for FIG. 6. In samples where FaDu cells are treated with BrdU and NR, FaDu cells are incubated with BrdU for 24 hours before irradiated with NR. Referring to FIG. 9B, a colony forming assay result of FaDu cells after the treatments described in […], is provided in accordance with an exemplary embodiment of the present disclosure. The colony forming assay in FIG. 9B are proceeded as following: FaDu cells treated by different regimens are grouped and seeded in 6-well-plates with 1000 cells in each of the well and cultured for 14 days; the culture medium was replaced every 3 to 4 days; in the end of the experiment, the cells are washed twice with PBS and fixed with 4% paraformaldehyde for 15 minutes and stained with 0.1% crystal violet. Referring to FIG. 9C, a quantitative result of the colony forming assay in FIG. 9B is provided in accordance with an exemplary embodiment of the present disclosure. In FIG. 9C, the results of the colony forming assay are quantified by microscopic examination by stereomicroscope.

[3] = test system: FaDu cells; experiment: flow cytometry analysis of BrdU/IdU DNA incorporation in FaDu cells; format: cell-based, human; conditions: 24 hours
Protocol: Referring to FIG. 7A, a flow cytometry analysis of FaDu cells without BrdU treatment is provided in accordance with an exemplary embodiment of the present disclosure. FaDu cells are analyzed by flow cytometry using BrdU Flow Kits (BD Pharmingen), in absence of BrdU. FaDu cells are trypsinized, washed, fixed, permeablized, blocked, and then treated with DNase I (5 U/10^6 cells/100 μL) for 1 hour at 37° C. FaDu cells are then hybridized with anti-BrdU antibodies for 1 hour at room temperature. After several washes, FaDu cells are analyzed for fluorescent signals with LSR II Analytic Flow Cytometer (BD Biosciences). […] Referring to FIGS. 7B-D, flow cytometry analyses of FaDu cells when treated with BrdU are provided in accordance with an exemplary embodiment of the present disclosure. In FIGS. 7B-D, FaDu cells are analyzed by flow cytometry with the same experiment procedures for FIG. 7A. FaDu cells in FIGS. 7B, 7C, and 7D are respectively treated with 0.5 μM BrdU, 1 μM BrdU, and 10 μM BrdU for 24 hours. […] The DNA incorporation efficiency of BrdU is 1 μM to more than 90% of FaDu cells, therefore 1 μM would be used in the subsequent experiment as an optimized dosage of BrdU. Referring to FIG. 8A, a flow cytometry analysis of FaDu cells without IdU treatment is provided in accordance with an exemplary embodiment of the present disclosure. FaDu cells are analyzed by flow cytometry using BrdU Flow Kits (BD Pharmingen), in absence of IdU. FaDu cells are treated with similar experiment procedures as in FIG. 7A, but anti-BrdU antibodies are replaced with anti-IdU antibodies. For the detection of IdU-incorporated cells, FaDu cells being treated by anti-IdU antibodies are then hybridized with a secondary antibody conjugated by proper fluorescent dye for 1 hour at room temperature. […] Referring to FIGS. 8B-D, flow cytometry analyses of FaDu cells when treated with IdU are provided in accordance with an exemplary embodiment of the present disclosure. FaDu cells are analyzed by flow cytometry with similar experiment procedures as in 7A. […] The DNA incorporation efficiency of IdU is 10 μM to more than 90% of FaDu cells, therefore 10 μM would be used in the subsequent experiment as an optimized dosage of IdU.

[4] = test system: FaDu cells; experiment: in vitro cell viability of FaDu cells; format: cell-based, human; conditions: for synergy of combination with RS2000 versus RS2000 alone: conventional X-ray RS2000, FaDu cells
[5] = test system: CASPASE-3; experiment: immunohistochemical (IHC) examination of subcutaneous FaDu tumor cells; format: in vivo, mouse; conditions: 1 day after treatment
Protocol: One day after the tumorigenic mouse are treated with IdU, or the combination of IdU and 4.5 Gy of NR/RS2000, the subcutaneous FaDu tumor cells are subjected to immunohistochemical (IHC) examination. […] The control group in FIGS. 15A-15F or FIGS. 16A-16B is the subcutaneous FaDu tumor cells without any treatment. […] CASPASE-3 is directly involved in apoptosis, therefore the combination of IdU and NR is proven to induce tumor growth inhibition.

[6] = 10 μM IdU combined with 1 Gy of 33 keV NR

SMILES	cytotoxicity of the combination with NR [1]	toxicity ([1]; FaDu cells, 1 μM BrdU)	colony forming inhibition ([2]; 1 μM BrdU combined with 1 Gy of 14 keV NR)	FaDu cells labeled ([3]; 0.5 μM BrdU)	FaDu cells labeled ([3]; more than 1 μM of BrdU)	cell viability ([4]; 1 μM BrdU and 1Gy of RS2000 (conventional X-ray))	synergy of combination with RS2000 versus RS2000 alone [4]	cell viability versus IdU or NR alone [1, 6]	colony forming inhibition versus IdU or NR alone [2, 6]	FaDu cells labeled ([3]; IdU 0.5 μM as printed (FIG. 8B))	FaDu cells labeled ([3]; more than 10 μM of IdU)	apoptotic cells (IHC, qualitative) ([5]; IdU and 4.5 Gy of NR, versus other groups)	CASPASE-3 expression in the tumor cells (IHC, quantitative) ([5]; IdU and NR, versus other treatments)
O=c1[nH]c(=O)n([C@H]2C[C@H](O)[C@@H](CO)O2)cc1Br [BrdU, bromodeoxyuridine]	strong synergistic cytotoxicity	almost no toxicity	57.5%	about 83%	more than 90%	lower cell viability	does not have synergistic effects						
O=c1[nH]c(=O)n([C@H]2C[C@H](O)[C@@H](CO)O2)cc1I [IdU, iododeoxyuridine]	strong synergistic cytotoxicity						does not have synergistic effects	lower	higher	about 84%	more than 90%	more apoptotic cells	more pronounced CASPASE-3 expression
